From US6653135B1, “Dynamic protein signature assay” (University of Maryland, priority 2000, dated 2003)

Assays:
Mytilus edulis = test: Protein expression signature by 2D electrophoresis of whole body homogenate after 7 day exposure
Description: Protein expression signatures, including those proteins induced and those proteins suppressed by exposure, were isolated for each treatment group.
Eight blue mussels Mytilus edulis 2-3 cm in size were collected from a natural population 3M deep. Ambient salinity and temperature were a salinity of 6.3 ppt and a temperature of 7° C. The mussels were put in tanks for acclimation for 24 hours at the same temperature and salinity as collection. […] Water was changed every other day and continuously aerated. At the end of the 7 day exposure, mussels were removed from the shell and flash frozen in liquid nitrogen before being freeze dried for later analysis.
Freeze dried whole body tissue was mechanically homogenized in cold buffer containing phenyl-methylsulfonyl fluoride and dithiothreotol (PMSF and DTT, protease inhibitors) and tris buffer pH 5.5. After mechanical homogenization, samples were boiled to further break down cells, and cellular debris was removed by centrifugation (13000×g for 5 min). Total protein concentration was determined using methods based on the Bradford method (Biorad).
The supernatant containing the soluble protein fraction was separated using two dimensional electrophoresis (Biorad Miniprotean II™). […] Gels from each treatment were compared for changes in pattern and key components using Medical Electrophoresis Analysis Interactive Expert System (MELANIE II™) 2D analysis software (Biorad) and data compiled using a database developed by this laboratory. Composite gels were produced from each treatment set and compared to one another. Proteins uniquely present (induced (expressed)) or absent (suppressed) in each treatment were identified. Those present or absent in all the original component gels were included in the protein expression signature (PES) for each treatment.

[1] = test system: Mytilus edulis gill tissue; test: Protein expression changes in gill tissue by 2D electrophoresis after 24 h exposure
Description: Gill tissue previously flash frozen in liquid nitrogen was mechanically homogenized in cold buffer containing phenyl-methylsulfonyl fluoride and dithiothreotol (PMSF and DTT, protease inhibitors). Cellular debris was removed by centrifugation (13000×g for 5 min). Total protein concentration of the supernatant containing the soluble protein fraction was determined using the Bradford method.
Spots on each gel were detected and compared using Medical Electrophoresis Analysis Interactive Expert System (MELANIE II™) 2D analysis software (Biorad). […] Those spots detectable on the treatment composites only were considered present. Each spot of interest, present or absent, on the treatment composites was identified on all original gels from a treatment group before being considered part of the protein expression signature.

[2] = 7 days exposure, 70 ppb copper, 1 ppb Aroclor 1248, whole body
[3] = signature proteins also found with 70 ppb copper combined with lowered salinity (3 ppt), 7 days
[4] = 20, 40, 60, 80 ppb CuSO4, 24 hrs

Structure (SMILES) | Proteins of the signature identified in organisms treated with copper and lowered salinity simultaneously (Mytilus edulis; 70 ppb copper plus salinity 3 ppt, 7 days) | Protein expression signature (induced and suppressed), number of proteins (Mytilus edulis; 7 days exposure, 70 ppb copper, 1 ppb Aroclor 1248) [proteins] | Unique Induction: number of proteins specifically induced (present) (Mytilus edulis; [2]) [proteins] | Unique Suppression: number of proteins specifically suppressed (absent) (Mytilus edulis; [2]) [proteins] | Copper/Salinity shared signal, induced proteins (Mytilus edulis; [3]) [proteins] | Copper/Salinity shared signal, suppressed proteins (Mytilus edulis; [3]) [proteins] | Protein spots absent at all treatment levels compared to controls [1, 4] [spots] | Protein spots present at all treatment levels compared to controls [1, 4] [protein spots] | Key Protein Changes (number of key proteins present and absent specifically) ([1]; 20 ppb CuSO4, 24 hrs, gill tissue) | Number of proteins specifically absent at a single dosage level ([1]; 20 ppb, 24 hrs) [protein spots] | Key Protein Changes (number of key proteins present and absent specifically) ([1]; 40 ppb CuSO4, 24 hrs, gill tissue) | Key Protein Changes (number of key proteins present and absent specifically) ([1]; 60 ppb CuSO4, 24 hrs, gill tissue) | Key Protein Changes (number of key proteins present and absent specifically) ([1]; 80 ppb CuSO4, 24 hrs, gill tissue) | Number of proteins specifically absent at a single dosage level ([1]; 80 ppb, 24 hrs) [protein spots] | Key Protein Changes (number of key proteins present and absent) ([1]; All Dosages (20, 40, 60, 80 ppb CuSO4), 24 hrs, gill tissue)
[Cu] [Copper, copper] | Five | 23 | 13 | 10 | 3 | 2 | – | – | – | – | – | – | – | – | –
O=S(=O)([O-])[O-].[Cu+2] [CuSO4, copper sulfate] | – | – | – | – | – | – | 2 | 11 | 27 | 14 | 14 | 19 | 10 | 6 | 13
